Data as given in patent US20120149572A1, “USE OF AGROCHEMICAL MIXTURES FOR INCREASING THE HEALTH OF A PLANT” (BASF SE, priority 2009, published 2012).

Tested on: cotyledons
Assay: Growth of excised cucumber cotyledons (fresh biomass) in treatment solution
Format: in vivo, Cucumbers
Conditions: for Mean cotyledon biomass: 3 days in the dark at 25° C., 20 cotyledons per treatment; for Observed efficacy (%): % biomass increase compared to 0.5% DMSO control; for growth stimulation of the cotyledons: applied alone
Protocol: The effect of dicamba as an example for compound (I), pyraclostrobin as an example for compound (II) and the respective mixture comprising both compounds on the growth of cotyledons, as one indicator of a plant's health, was evaluated. Cucumbers were sown and germinated in the dark at 25° C. for 4 days. Subsequently, 20 cotyledons per treatment were cut and placed in a Petri dish containing 20 ml of the treatment solution. Control cotyledons were treated with the 0.5% DMSO solution. Following the incubation in the dark at 25° C. for 3 days the cotyledons were weight and the fresh biomass recorded (table 1).
The efficacy of the tested compounds was calculated as % of biomass increase compared to the control:
E=(a/b−1)*100 • a corresponds to the biomass (mg) of the treated cotyledons after incubation; • b corresponds to the biomass (mg) of untreated cotyledons after incubation (control).
The expected efficacies of the combinations of the active ingredients were estimated using Colby's formula (Colby, S. R., Calculating synergistic and antagonistic responses of herbicide combinations, Weeds, 15, pp. 20-22, 1967) and compared with the observed efficacies.
Colby's formula: E=x+y−x*y/100 • E expected efficacy, expressed in % of the untreated control, when using the mixture comprising the compounds A and B at the concentrations a and b; • x efficacy, expressed in % of the untreated control, when using compound A at the concentration a; • y efficacy, expressed in % of the untreated control, when using compound B at the concentration b.

| SMILES | Mean cotyledon biomass (1.25 ppm in 0.5% DMSO) [mg] | Observed efficacy (%) (1.25 ppm) | growth stimulation of the cotyledons | Mean cotyledon biomass (2 ppm in 0.5% DMSO) [mg] | Observed efficacy (%) (2 ppm) |
| --- | --- | --- | --- | --- | --- |
| COc1c(Cl)ccc(Cl)c1C(=O)O [Dicamba, dicamba] | 69.9 | −0.8 | no growth stimulation |  |  |
| COC(=O)N(OC)c1ccccc1COc1ccn(-c2ccc(Cl)cc2)n1 [Pyraclostrobin, pyraclostrobin] |  |  | no growth stimulation | 67.7 | −3.9 |
